The values below come from patent US4680382A, “Analogues of actinomycin D” (priority 1986, dated 1987).

For series [1], the system named is calf-thymus DNA. Put plainly: Equilibrium binding to calf-thymus DNA, Scatchard plots of binding isotherms (spectrophotometric). The conditions noted are these: Scatchard plot. The procedure: (§1) The "reverse" analogues bind to calf-thymus DNA, but the spectrophotometrically determined binding (Kapp and Bapp, equilibrium binding values) constants are found to be lower than those of AMD. The binding is also measured by thermal denaturation of DNA.
(§2) The equilibrium binding constants (Kapp and Bapp) of the "reverse" methyl 7a and the "reverse" phenyl 8a were determined from the Scatchard plots of binding isotherms; the Scatchard plots are produced according to the previously described methods using calf-thymus DNA [Sengupta et al, Biochem. Biophys. Acta 521, 89 (1978)]. The Kapp values are 2.5×10^6 and 2.3×10^6 M^-1, respectively; corresponding Bapp values are 0.038 and 0.036. […] But, these "reverse" analogues associate with DNA less strongly; their frequency of binding is also lower compared to that of AMD. However, the "reverse" analogues fail to cause any measurable change in the ratio of the intrinsic viscosity (γ) of DNA with the increasing ratios of [ligand]/DNA base pair (r), even when low molecular weight DNAs (0.5×10^5 to 1.0×10^5) were employed.

Series [2] relates to DNA. Put plainly: Thermal denaturation of DNA (ΔTm). In kind it is binding. Here is the method:
as §1, §2
Melting points are determined on a Thomas-Hoover melting point apparatus at a heating rate of 2° C./min. Thin-layer chromatography was performed on silica gel plates (Brinkmann Instrument Inc.). Solvent systems were (A) EtOAc-acetone (4:1), (B) CHCl3 -MeOH (9:1) and (C) Cifferri, the organic phase of the mixture EtOAc-MeOH-H2 O (20:1:20). High-performance liquid chromatography was carried out on a Varian Model 5020 gradient liquid chromatograph equipped with a CD-111L chromatography data system and fitted with a Varian reversed-phase C18 column with the following solvent systems: I, CH3 CN-5 mM NH4 OAc buffer, pH 6.4 (68:32 isocratic), flow rate 1.5 mL/min; II, 65-95% water-methanol gradient for 70 min, 1 mL/min; III, 10-90% H2 O-MeOH gradient for 120 min, 1 mL/min, with UV-visible variable- and fixed-wavelength dual detectors at 254, 440, 470 and 520 nm. IR spectra were obtained on a Perkin-Elmer Model 237 Infra Cord with KBr micropellets or in chloroform solutions. UV-visible spectra were obtained on a Gilford 250 spectrophorometer, which, with the addition of a base-line reference compensator (Analog Multiplexer 5053) and thermoprogrammer, auto four cell programmer and thermoelectric cell holder 2577, were used to obtain thermal denaturation curves. Specific rotation values were determined in chloroform solutions with a Cary 60 spectropolarimeter. NMR spectra were obtained in a JEOL FQ-90 MHz spectrometer equipped with Fourier transform. EPR spectra analyses were recorded in a Varian E-9 EPR spectrometer. All elemental analyses were within ±0.4%.

Series [3] relates to CCRF-CEM human lymphoblastic leukemic cells. Description: In vitro cytotoxicity against CCRF-CEM cells. It is filed as cell-based. The settings on record: 48 hr. The procedure:
^a Human lymphoblastic leukemic cells.
The analogues were tested for their cytotoxicity against tumor cells (time, 48 hr). […] This may be associated with the initial microsomal transformation of the "reverse" analogues to "symmetrical" analogue and/or other alternate bioactive forms (e.g., free-radicals, O2^-), followed by deactivation via formation of conjugates and facile elimination of these from the host. The "reverse" analogues show reduced toxicity in vivo and also the tritiated "reverse" 7a is metabolized in vitro.

Series [4] deals with P388 cells. Description: Inhibition of RNA synthesis (2-[14C]uridine incorporation) in P388 cells. It is filed as cell-based, murine. Here is the method:
(§3) Experiments for inhibition of nucleic acid synthesis in tumor cells in vitro were carried out with P388 tumor cells, details of which were reported by Sengupta et al, J. Med. Chem., 18, 1175 (1975). […] AMD-OZLs inhibit either process with equal activity and with the potency of its metabolite 7-hydroxy-AMD.
^b IC50 (RNA) = concentration of inhibitor in μM required to
cause 50% reduction (in 1 hr) in 2[^14 C]uridine incorporation into
acid precipitable material with use of P388 cells.

In series [5] the test system is P388 cells. Description: Inhibition of DNA synthesis (methyl-[3H]thymidine incorporation) in P388 cells. It is filed as cell-based, murine. The settings on record: 50% reduction in 1 hr of methyl-[3H]thymidine incorporation, read-out: IC50 DNA synth. The procedure: as §3
^c IC50 (DNA) = concentration of inhibitor in μM required to
cause 50% reduction (in 1 hr) in methyl[^3 H]thymidine incorporation
into acid precipitable material with use of P388 cells.

In series [6] the test system is P388 lymphocytic leukemia. Put plainly: In vivo antitumor activity against P388 leukemia. Also on record: species or system BDF1 mice. The procedure:
The analogues were tested for their antitumor activities in P388 lymphocytic leukemia in male BDF1 mice. The tumor was implanted intraperitoneally (ip) with 10^6 cells. The drugs were also administered ip once daily on days 1, 5 and 9, beginning 1 day after tumor transplantation. Analogues were tested over a range of doses, but only the optimal nontoxic doses are listed.
^a 10^6 P388 cells implanted ip on day 0 into groups of eight
BDF1 male mice. Drugs administered ip. MST (range), median survival
time in days (range of individual animal deaths); % ILS, percent increase
in life span, calculated 100(T/C - 1), where T and C are median survival
times of treated and control animals; surv, number of surviving mice/tota

For series [7], the system named is B16 melanoma. Put plainly: In vivo antitumor activity against B16 melanoma. Also on record: species or system BDF1 mice. The procedure: AMD-OZL analogues 9a and 10a were about as active as AMD and 7-hydroxy-AMD. The potencies of these analogues are reduced in comparison to that of AMD; their optimal doses were higher than that of AMD.
^a 0.2 mL of 1:5 (weight/volume) brei of B16 melanoma implanted
ip on day 0 in groups of nine BDF1 mice. Drugs administered ip.
^b MST (range) median survival time in days (range of individual
^c % ILS (surv), percent increase in lifespan (survivors on day

The subject of series [8] is P388/S. Description: In vivo activity against P388/S (adriamycin sensitive) leukemia, Table VII. Also on record: species or system BDF1 mice. Here is the method:
(§4) ^a Male BDF1 mice inoculated ip: 10^6 cells inoculum, day 0.
(§5) Drugs administered in 10% dimethyl sulfoxidesaline on days 1, 5 and 9. %
(§6) ILS = percent increase in life span. Fractions in parentheses = tumorfree
(§7) survivors/total on day 60. P388/S (adriamycin sensitive) and P388/ADR
(§8) (adriamycin resistant) tumors were evaluated in the same experiment with […]

In series [9] the test system is P388/ADR. Put plainly: In vivo activity against P388/adriamycin-resistant leukemia. Details: species or system BDF1 mice. Here is the method:
as §4, §5, §6, §7, §8

A short description of series [10]: Maximum tolerated dose (LD10) in tumor-free BDF1 male mice. It is filed as in vivo. The conditions noted are these: lethal dose for 10% normal BDF1 male mice, 21 days (LD10); ip days 1, 5 and 9. Here is the method:
(§9) These analogues were also tested in tumor-free BDF1 male mice for determination of their MTD values (Table VIII). The animals (18-22 g) were given a broad range of doses of drugs in 5% dimethyl sulfoxide-saline on days 1, 5 and 9. Drugs were administered ip and the maximum tolerated doses of agents which caused death in only 10% of the tested animals in 21 days (i.e., LD10) were recorded as MTD. […] However, the MED values of 7-hydroxy-AMD and its precursor AMD-OZL 10a are high and are seven to tenfold of the MED values of 4a and 8a. On the basis of these MED values, the therapeutic indices of 8a and 4a are 70 and 96. The therapeutic index of 2a is 13, of 10a 10, and of AMD only 4.
^c MTD (maximum tolerated dose) is the lethal dose
(milligram/kilogram) for 10% normal BDF1 male mice (18-22 g); animal
calculated from a plot of logdose vs. percent mortality.

In series [11] the test system is P388 Leukemia. Put plainly: Minimum effective dose and therapeutic index vs. P388 leukemia. The settings on record: dose giving 45% increase in life span in P388 tumor bearing mice; ip days 1, 5 and 9. In kind it is in vivo. The procedure: as §9
^a Drugs administered ip once on days 1, 5 and 9 starting 1 day after
tumor implantation. Determinations were made from analysis of plotted
^b MED (minimum effective dose) is the dose (milligram/kilogram)
providing an increase in life span of 45% over control in P388 tumor

Each structure is given as a SMILES string.

Consider `Cc1c2oc3c(C)c4oc(-c5ccccc5)nc4c(C(=O)NC4C(=O)NC(C(C)C)C(=O)N5CCCC5C(=O)N(C)CC(=O)N(C)C(C(C)C)C(=O)OC4C)c3nc-2c(C(=O)NC2C(=O)NC(C(C)C)C(=O)N3CCCC3C(=O)N(C)CC(=O)N(C)C(C(C)C)C(=O)OC2C)c(N)c1=O` [8a, 7-Amino-9,11-dimethyl-2-phenyl-8H-8-oxooxazolo [4,5-b]phenoxazine 4,6-bis[carbonyl-L-threonyl-D-valyl-L-prolylsarcosyl-L-N-methylvaline(threonine hydroxyl)] lactone], for which, in series [1], the “Bapp (equilibrium binding value)” value worked out at 0.036. Moreover, the “Kapp (equilibrium binding constant)” value in series [1] was 2.3e+06 M⁻¹. Moreover, the “ΔTm (DNA melting temperature)” value in series [2] was determined as 6.7±0.2 °C. Moreover, in series [3], the “in vitro (CCRF-CEM) ID50” value came to 30 nM. The IC50 was determined as 70 nM in [4] (50% reduction in 1 hr of 2-[14C]uridine incorporation, read-out: IC50 RNA synth) and 800 nM in series [5]. The “IC50 DNA/IC50 RNA” value in series [4] (ratio) is on record as 11.43. Besides, the “surv (surviving mice/total mice at 60 days)” value in [6] (P388, at optimal dose) is 4/8. Further, the “% ILS” value is 382% in series [6] (P388, at optimal dose, 100(T/C - 1)) and 103% in series [7] (at optimal dose). Moreover, the “MST (range)” value in series [6] (P388, at optimal dose, control 11.0 (9-12)) was 52.0 (49-58) days; in series [7] (at optimal dose, control 29 (20-48)), 59 (53-59) days. Moreover, the optimal dose in [6] (P388, ip, days 1, 5 and 9, optimal nontoxic dose) is 375.0 μg/kg per inj; in series [7] (ip, days 1, 5, 9) it was 300 μg/kg per inj. For the same compound, the “surv (survivors on day 65/total injected)” value in series [7] (at optimal dose) is 5/9. Moreover, the “P388/S % ILS” value in [8] (at optimal dose) was 382%. Besides, in series [8] (at optimal dose), the “P388/S tumor-free survivors/total on day 60” value was 4/8. Moreover, the P388/S optimal dose in series [8] (ip, days 1, 5 and 9) is 0.35 mg/kg. Moreover, the “P388/ADR % ILS” value in series [9] (at optimal dose) worked out at 132%. Also, the “P388/ADR tumor-free survivors/total on day 60” value in series [9] (at optimal dose) is 1/8. In addition, in series [9] (ip, days 1, 5 and 9), the P388/ADR optimal dose is 0.6 mg/kg. Also, in series [10], the “MTD (maximum tolerated dose)” value was determined as 1.80 milligram/kilogram. Moreover, the “MED (minimum effective dose)” value in series [11] is 0.03 milligram/kilogram.

For orientation: IC50 means the concentration at which inhibition is half-maximal.
